93 molecules from ChEMBL document CHEMBL5303711, “ECBD screening data for assay EOS300108” (2023) can be followed below.

This data set is described as follows: Cytotoxicity activity against human HepG2 cells assessed by CellTiter-Glo luminescent cell viability assay. The format is toxicity, cell-based. Further details: assay stage confirmatory assay, source tissue liver. Conditions: HepG2 cells, read-out: IC50 relative.

The source made the active and inactive calls. How the calls were made is not given here.

In the case of `O=c1c2ccccc2sn1-c1nccs1`, the CC50 was 50 µM (inactive).

For the molecule `COc1ccccc1C(=O)Nc1nc2ccccc2[nH]1`, the CC50 is 2.8 µM (active).

For the molecule `Cc1n[nH]c(C)c1CC(=O)Nc1cnn([C@@H](C)C2CC2)c1`, the CC50 is 50 µM (inactive).

Take `C[C@@H]1CNCCN1S(=O)(=O)c1cccc(Br)c1`: the CC50 is 50 µM (inactive).

For `O=C(CCN1CCCCC1)c1cc2ccccc2o1`, the CC50 was 21.1 µM (inactive).

As for `Cc1ccnc(NC(=O)c2csc(Cl)c2)n1`, the CC50 is 4.8 µM (active).

On to `CC1=CCN(C[C@H](O)COc2ccc3c(c2)OCO3)CC1`, for which the CC50 is 13.5 µM (inactive).

As to `Cc1cc(C)nc(-n2ncc(Cl)c(Cl)c2=O)n1`, the CC50 is 3.8 µM (active).

Turning to `Cc1nc(CCN[C@@H](C)c2ccc(S(N)(=O)=O)cc2)cs1`, the CC50 is 2.7 µM (active).

For the molecule `CCN1CCC(NC[C@H](C)Oc2ccc(C(C)C)cc2)CC1`, the CC50 is 7.1 µM (active).

In the case of `O=S(=O)(C[C@H]1CCOC1)NC1CCN(Cc2ccc(Cl)cc2)CC1`, the CC50 is 12.9 µM (active).

Consider `c1ccc(-n2ccc(CNc3ncnc4c3ncn4C3CC3)n2)cc1`, for which the CC50 is 9.8 µM (active).

Take `CN1CCc2nc(C(=O)c3nc4c(s3)CN(C)CC4)sc2C1`: the CC50 is 0.5 µM (active).

On to `CCOc1ncccc1C(=O)NCc1nccc2ccccc12`, for which the CC50 is 3.9 µM (active).

Consider `CN(C)C(=O)c1cccc(CN(C)c2ccccc2CO)c1`, for which the CC50 was 10.9 µM (active).

Take `COc1ccc2cc(CN3CCC(n4ccnc4)CC3)ccc2c1`: the CC50 was 11.5 µM (active).

As for `COc1ccc(Nc2nc(CN3CCN(S(=O)(=O)c4cccs4)CC3)cs2)cc1`, the CC50 was 7.1 µM (active).

For the molecule `CN(C)CC1(O)CCCN(Cc2cc3ccccc3n2C)C1` (stereo not drawn), the CC50 is 11.8 µM (active).

In the case of `CN(C)c1ccnc(NCCc2cc(F)cc3c2OCOC3)n1`, the CC50 is 10.2 µM (active).

As to `Cc1ccccc1C[C@H](C)NCCN1CCC(N(C)C)CC1`, the CC50 is 13.7 µM (inactive).

Consider `CCc1oc2ccccc2c1CN(C)C(=O)C1(C)CCN(C)CC1`, for which the CC50 was 12 µM (active).

As to `O=C(Nc1ccc2c(c1)S(=O)(=O)C=C2)c1ncoc1-c1ccco1`, the CC50 was 10.9 µM (inactive).

For the molecule `C[C@H](Nc1nc(N)nc2ccccc12)c1ccccc1`, the CC50 is 3.9 µM (active).

For `Nc1nc(C2CC(N)C2)cc(N2CCC(OCc3ccccc3)CC2)n1` (stereo not drawn), the CC50 was 10.8 µM (active).

`O=S(=O)(c1ccc(S(=O)(=O)N2CCOc3ccccc32)cc1)N1CCCC1`: the CC50 was 4.2 µM (active).

In the case of `CCS(=O)(=O)c1ccc(NC(=O)c2ccc(F)c(S(=O)(=O)N3CCCCC3)c2)cc1`, the CC50 is 6.1 µM (inactive).

Consider `Cn1nccc1CCNC(=O)c1csc(-c2ccoc2)n1`, for which the CC50 is 2 µM (active).

For `Cc1ccc2ncc(C(=O)Nc3ccc(Cl)cc3O)c(=O)n2c1`, the CC50 is 1.4 µM (inactive).

Turning to `c1ccc(Oc2cccc(C[C@H]3CCCN3)c2)cc1`, the CC50 is 13.7 µM (inactive).

Take `COc1ccc(OC)c(-c2cc(C(=O)Nc3ccccn3)no2)c1`: the CC50 was 0.8 µM (inactive).

`C[C@H](O)CN1CCC(CNCc2cccc(C(F)(F)F)c2)CC1`: the CC50 was 15.5 µM (inactive).

Regarding `Cc1cc2sc(NC(=O)NCCNS(C)(=O)=O)nc2cc1F`, the CC50 was 2.3 µM (active).

Regarding `N#Cc1c(N)[nH]c2cc(Br)ccc12`, the CC50 was 18 µM (inactive).

As for `Cn1ccc(C(=O)Nc2cc(F)ccc2-n2cccn2)cc1=O`, the CC50 was 1.1 µM (inactive).

For the molecule `CCOc1ccc(NC(=O)CNC[C@H]2CCCO2)cc1C`, the CC50 was 40.3 µM (inactive).

As for `COCC(=O)N1CCCN(Cc2ccc3c4c(cccc24)C(=O)OC3)CC1`, the CC50 is 13.4 µM (active).

Consider `ON=C1C[C@@H](c2ccc(Cl)cc2)Oc2ccccc21`, for which the CC50 was 2.7 µM (active).

As for `CCOc1ccc(S(=O)(=O)NCC2(C)CCNCC2)c2ccccc12`, the CC50 was 10 µM (active).

For the molecule `Cc1cc(C)cc(N2CCN(C(=O)c3cnn4ccccc34)CC2=O)c1`, the CC50 was 0.7 µM (active).

In the case of `CC[C@H]1CN(c2ccccc2)CCN1c1ccnc(C(C)C)n1`, the CC50 is 10.7 µM (active).

Turning to `Fc1ccccc1CC1CCN(C[C@H]2[C@@H]3CNC[C@@H]32)CC1`, the CC50 is 8.8 µM (active).

Regarding `COc1cc2c(cc1F)CN(Cc1cnc3ccccn13)CC2`, the CC50 was 2 µM (active).

As to `O=c1cc(O)c2c(-c3ccc(F)cc3)csc2[nH]1`, the CC50 was 2.7 µM (active).

For the molecule `COc1ccc(C(=O)N2CCN(c3ncnc4cccc(F)c34)CC2)cc1`, the CC50 was 9.4 µM (active).

Regarding `COc1ccc([C@@H]2CCCN2c2cnn(C(C)(C)C)c(=O)c2Cl)cc1`, the CC50 was 11.1 µM (active).

As to `N#Cc1c[nH]c(C(=O)Nc2cc(C(F)(F)F)ccn2)c1`, the CC50 was 12.3 µM (active).

Turning to `COc1ccc(C(=O)Nc2nc3cc4c(cc3s2)OCCO4)cn1`, the CC50 is 50 µM (inactive).

For `CC(C)n1ncc2cc(NC(=O)c3cc4ccccc4cc3O)cnc21`, the CC50 was 10 µM (inactive).

In the case of `CN(Cc1ccc2c(c1)OCCO2)C(=O)[C@H]1CCCN(S(N)(=O)=O)C1`, the CC50 was 50 µM (inactive).

Take `Cc1cnccc1NCCNC1CCN(c2ccc(F)c(F)c2)CC1`: the CC50 was 1.7 µM (active).

`CN1CCCN(C(=O)Nc2ccc3c4c(cccc24)CC3)CC1`: the CC50 is 9.4 µM (active).

Regarding `CS(=O)(=O)Nc1ccc(C(=O)N2CCN(CCOc3ccc(Cl)cc3)CC2)cc1`, the CC50 was 4.6 µM (active).

Take `CC(C)(C)Cc1cc(NC(=O)[C@@H]2CCCN2C(=O)c2ccc3c(c2)OCO3)[nH]n1`: the CC50 was 0.8 µM (active).

In the case of `Fc1ccc(C(CCNC[C@@H]2[C@H]3CNC[C@@H]23)c2ccco2)cc1` (stereo partly drawn), the CC50 is 7.1 µM (active).

For the molecule `O=C(Cn1ncc(Cl)c(Cl)c1=O)NCc1ccccc1`, the CC50 was 5.4 µM (active).

Take `Cc1cc(NCCCN2CCC(C)CC2)c2ccccc2n1`: the CC50 is 6.5 µM (active).

Turning to `Cc1cccc(C(=O)Nc2nc(-c3nccn3C)cs2)c1`, the CC50 is 4.7 µM (active).

For `COc1ccc(-c2nc(Cn3ncc(Cl)c(Cl)c3=O)co2)cc1`, the CC50 was 11 µM (active).

Turning to `Cn1cc(S(=O)(=O)N2CCC[C@@H]2COc2ccc(F)cc2)cc1C(N)=O`, the CC50 is 0.6 µM (active).

On to `COc1cc(OC)c(C2=CCN(C[C@H](O)COc3ccccc3F)CC2)c(OC)c1`, for which the CC50 is 6 µM (active).

Turning to `COc1ccccc1OCCNc1ncnc2cc(F)ccc12`, the CC50 is 1.5 µM (active).

As for `N#Cc1nccnc1Sc1nnc(COc2ccc(Cl)cc2)o1`, the CC50 is 2.9 µM (active).

Turning to `C[C@H]1CN(C)c2ccccc2N(Cc2cc3ccccc3c(=O)[nH]2)C1`, the CC50 is 16.9 µM (inactive).

With `c1cc(N2CCC[C@H]2C2CCCCC2)nc(C2CC2)n1`, the CC50 is 11.8 µM (active).

Take `CCCC[C@H](CC)CNC1CCN(C(C)C)CC1`: the CC50 is 7.8 µM (inactive).

As to `Cc1cc2c(=O)nc(-c3cc(OCC(F)F)ccn3)[nH]c2s1`, the CC50 was 2.2 µM (active).

With `COc1ccc(C(N)=O)c(OCc2cn3ccccc3c2C#N)c1`, the CC50 is 10.7 µM (inactive).

Consider `CC(=O)c1ccc(NC(=O)c2cccc3cccnc23)cc1`, for which the CC50 is 0.9 µM (active).

On to `C#CCNC(=O)c1ccccc1NCc1ccc(C#N)cc1OC`, for which the CC50 was 1 µM (active).

Turning to `C[C@]1(c2cccc(C#N)c2)NC(=O)N(Cc2noc(-c3ccsc3)n2)C1=O`, the CC50 was 12.5 µM (inactive).

With `CCCOc1cc(S(=O)(=O)Nc2cccc(O)c2)ccc1Cl`, the CC50 was 12 µM (active).

`C1=CC[C@@H](CNC2CCN(Cc3ccccc3)CC2)CC1`: the CC50 was 13 µM (active).

In the case of `CNC(=O)c1c(N)sc2c1-c1ccccc1C2`, the CC50 was 19.3 µM (inactive).

`NC1CCN(S(=O)(=O)c2ccc([C@H]3[C@@H]4CCCC[C@@H]43)cc2)CC1`: the CC50 is 12 µM (active).

Take `CCO[C@@H](CCNC(=O)c1csc(-c2ccoc2)n1)C(C)C`: the CC50 was 1.3 µM (active).

As for `CN[C@H]1CCCN(S(=O)(=O)c2ccc(Cl)cc2F)C1`, the CC50 was 17.1 µM (inactive).

On to `Cc1cc(-c2ccc(O)cc2O)nc2cc3c(cc12)OCO3`, for which the CC50 was 26.3 µM (inactive).

`COc1ncccc1NC(=O)c1n[nH]c2ccccc12`: the CC50 is 0.1 µM (active).

For the molecule `CCn1c(Cn2ncc(Cl)c(Cl)c2=O)nc2cc(F)ccc21`, the CC50 is 3 µM (active).

As for `COc1ccc(C(N)=O)c(OCc2cccc3cccnc23)c1`, the CC50 is 0.3 µM (active).

`CN(C)S(=O)(=O)c1ccc2oc(SCCOc3ccccc3)nc2c1`: the CC50 is 10 µM (active).

As for `O=C(Nc1cccc(Cl)c1O)c1sccc1Br`, the CC50 was 0.8 µM (active).

In the case of `CC[C@@](NC(=O)c1csc(-c2ccoc2)n1)(C(N)=O)C(C)C`, the CC50 was 5.2 µM (active).

For the molecule `NC(=O)c1cc(-c2csc(Nc3ccccc3)n2)ccc1O`, the CC50 was 14.2 µM (inactive).

`Cc1nc2ccccc2n1CCN1CCN(CCOc2ccccc2)CC1`: the CC50 is 7.5 µM (active).

As for `CC(C)CCn1c(SCC(=O)NCCN(C(C)C)C(C)C)nc2ccccc2c1=O`, the CC50 is 12.5 µM (active).

For `O=C(N[C@H]1CCCc2sccc21)c1cccc2c1OCO2`, the CC50 was 6.5 µM (active).

Turning to `Cn1c(=O)c2ccc(C(=O)Nc3nc(-c4ccco4)cs3)nc2n(C)c1=O`, the CC50 was 10.5 µM (inactive).

Consider `COc1cc(OC)cc(C(=O)N2CCN(Cn3ncc(Cl)c(Cl)c3=O)CC2)c1`, for which the CC50 was 23.4 µM (inactive).

In the case of `CCc1nnsc1C(=O)Nc1cc(-c2cccs2)n[nH]1`, the CC50 is 4.8 µM (active).

As to `CCN1CCN(c2ccc(C(=O)Nc3nc(-c4cccnc4)cs3)cc2)CC1`, the CC50 is 5.8 µM (active).

Regarding `COc1ccc(OC2CCN(CC[C@H]3CCCCN3C)CC2)cc1`, the CC50 was 11.2 µM (inactive).

With `COc1ccc(-c2cnc3ccc(N4CCCC4)nn23)cc1OC`, the CC50 is 4.3 µM (active).
